We go through two compounds from US20040229942A1, “Analeptic and antidepressant combinations” (Cephalon Inc, priority 2003, published 2004).

For one assay, the system named is non-human primates. To be noted: non-human primates (Hernant et al, 1991); cited from earlier work.
For the next assay, the system named is canines. To be noted: canines (Shelton et al., 1995); cited from earlier work.
In a further assay the test system is rats. The settings on record: rats (Touret et al., 1995; Edgar and Seidel, 1997); cited from earlier work.
For assay [1], the system named is patients previously diagnosed with MDD (single episode or recurrent). Put plainly: Clinical study: modafinil started together with an SSRI (fluoxetine or paroxetine) in MDD patients, depressive symptom assessment (HAMD-21, HAMD-31, response, remission). The settings on record: human, in vivo. How it is done:
Eligible patients were previously diagnosed with MDD (single episode or recurrent), […] had significant fatigue (Fatigue Severity Scale [FSS] score of greater than or equal to 4), and had not taken antidepressant therapy for greater than or equal to 4 weeks. Patients were evaluated at screening, baseline (shown in Table 1), and weeks 1, 2, 3, 4, 5, and 6.
Patients were then started on a combination of an SSRI and modafinil.
Modafinil was initiated at 100 mg/day for 3 days and then titrated to 200 mg/day, depending on response and tolerability. SSRI therapy was either fluoxetine or paroxetine administered at 20 mg/day for 6 weeks.
Depressive symptom changes were analyzed using HAMD-31, each of which were videotaped and rated independently, and HAMD-21 total score evaluations. HAMD-21 total score analyses were also performed to evaluate response and remission rates. Changes in fatigue were assessed using the FSS. A fatigue response was defined as an FSS score of less than 4 at any post-baseline visit. […] Subjective sleepiness was assessed using the Epworth Sleepiness Scale (ESS). […] Symptoms associated with depression, including fatigue, mood, motivation, and concentration, were evaluated using patient-assessed Visual Analogue Scales (VAS).
Continuous variables were analyzed using a paired t-test for normally distributed data or Wilcoxon signed rank test for non-normal data. […]

The test system of another assay is cats. To be noted: cats (Lin et al., 1992); cited from earlier work.
The subject of assay [2] is major depressive disorder. To be noted: at 6 weeks; cited from earlier work.

For the compound `NC(=O)C[S+]([O-])C(c1ccccc1)c1ccccc1` (stereo not drawn) [Modafinil, 2-(benzhydrylsulfinyl) acetamide], the wakefulness entry in the assay with non-human primates, in the assay on canines, in the assay on rats and with cats was “promotes wakefulness” each time. Moreover, the “overall conclusion on adjuvant effect in patients with depression and significant fatigue” value in assay [1] was “rapid-acting and effective adjuvant medication”.

In the case of `CNCCC(Oc1ccc(C(F)(F)F)cc1)c1ccccc1` (stereo not drawn) [fluoxetine], the “response to antidepressant therapy” value in assay [2] is “about 50%”.
